The values below come from ChEMBL document CHEMBL3576858, “A natural product based DOS library of hybrid systems” (Eur J Med Chem, 2015).

The test system of series [1] is Plasmodium falciparum. Kind of series: Antiplasmodial activity against Plasmodium falciparum 3D7 infected in O positive erythrocytes assessed as parasitemia at 50 uM after 48 hrs by FACS-based assay (reference value: 3.484%). The class given is functional. A general note: Flow cytometry measures light scatter and fluorescence of single cells or particles in a stream.

The test system of series [2] is Plasmodium falciparum. Kind of series: Antiplasmodial activity against Plasmodium falciparum 3D7 infected in O positive erythrocytes assessed as parasitemia at 50 uM after 36 hrs by FACS-based assay (reference value: 1.617%). The class given is functional.
Series [3] deals with Plasmodium falciparum. Kind of series: Antiplasmodial activity against Plasmodium falciparum 3D7 infected in O positive erythrocytes assessed as parasitemia at 50 uM after 24 hrs by FACS-based assay (reference value: 1.670%). The format is functional.
Series [4] deals with Plasmodium falciparum. Kind of series: Antiplasmodial activity against Plasmodium falciparum 3D7 infected in O positive erythrocytes assessed as inhibition of parasite growth at 20 uM by FACS-based assay. The format is functional.
The test system of series [5] is Plasmodium falciparum. The series is described as follows: Antiplasmodial activity against Plasmodium falciparum 3D7 infected in O positive erythrocytes assessed as inhibition of parasite growth at 1 uM by FACS-based assay. The class given is functional.
In series [6] the test system is Plasmodium falciparum. The series is described as follows: Antiplasmodial activity against Plasmodium falciparum 3D7 infected in O positive erythrocytes assessed as inhibition of parasite growth at 10 uM by FACS-based assay. The class given is functional.
The subject of series [7] is Plasmodium falciparum. Kind of series: Antiplasmodial activity against Plasmodium falciparum 3D7 infected in O positive erythrocytes assessed as inhibition of parasite growth at 40 uM by FACS-based assay. The format is functional.
For series [8], the system named is HepG2. The series is described as follows: Cytotoxicity against human HepG2 cells at 1 uM after 24 hrs by MTT colorimetric assay. The format is cell-based. The following applies: hepg2, 24 h.
The subject of series [9] is Plasmodium falciparum. Kind of series: Antiplasmodial activity against Plasmodium falciparum 3D7 infected in O positive erythrocytes assessed as inhibition of parasite growth at 50 uM by FACS-based assay. The class given is functional.
Series [10] concerns HepG2. Kind of series: Cytotoxicity against human HepG2 cells at 100 uM after 24 hrs by MTT colorimetric assay. The format is cell-based. The following applies: hepg2, 24 h.
Series [11] has as its system Plasmodium falciparum. The series is described as follows: Antiplasmodial activity against Plasmodium falciparum 3D7 infected in O positive erythrocytes assessed as inhibition of parasite growth at 500 nM by FACS-based assay. The format is functional.
For series [12], the system named is HepG2. Kind of series: Cytotoxicity against human HepG2 cells at 10 uM after 24 hrs by MTT colorimetric assay. The format is cell-based. The following applies: hepg2, 24 h.
Series [13] relates to Plasmodium falciparum. The series is described as follows: Antiplasmodial activity against Plasmodium falciparum 3D7 infected in O positive erythrocytes assessed as inhibition of parasite growth at 30 uM by FACS-based assay. The class given is functional.

Regarding `C[C@]12C[C@@]3(C(=O)NCC3c3ccccc3)C(=O)N1[C@H](CO)Cc1ccccc12` (stereo not given in full), the Activity in the series with Plasmodium falciparum [1] was 1.058%; in the series on Plasmodium falciparum [2], 1.255%; in the series on Plasmodium falciparum [3], 1.209%.

Broadly, the inhibition is the share of the control response that was lost under treatment. As for `CN(C)C[C@@H]1Cc2ccccc2[C@@]2(C)C[C@]3(C(=O)Nc4cc(N)ccc43)C(=O)N12`, the inhibition at 20 µM with Plasmodium falciparum [4] was determined as 34.6%. Also, the inhibition at 1 µM in the series with Plasmodium falciparum [5] was found to be 2.88%. In the series on Plasmodium falciparum [6], the inhibition at 10 µM was determined as 6.54%. The inhibition at 40 µM with Plasmodium falciparum [7] stood at 62.5%. Further, the values for the Activity in the series on HepG2 [8], in the series with HepG2 [10] and in the series on HepG2 [12] were -23%, -36% and 5%, respectively. Besides, in the series on Plasmodium falciparum [9], the inhibition at 50 µM worked out at 82.3%. The inhibition at 0.5 µM in the series on Plasmodium falciparum [11] turned out to be 0%. Moreover, the inhibition at 30 µM in the series on Plasmodium falciparum [13] worked out at 53.9%.

As for `C[C@]12CC3(CC=CC3)C(=O)N1[C@H](CO)Cc1ccccc12`, the inhibition at 10 µM with Plasmodium falciparum [6] was 1.8%. In addition, the Activity with Plasmodium falciparum [1] is 0.9149%; in the series on Plasmodium falciparum [2], 1.161%; with HepG2 [8], -5%; in the series with Plasmodium falciparum [3] it was 0.7444%; with HepG2 [10], -155%; with HepG2 [12], -24%. Besides, the inhibition at 50 µM in the series with Plasmodium falciparum [9] was determined as 2.13%.

`COC(=O)C1(C(C[N+](=O)[O-])c2ccccc2)C[C@]2(C)c3ccccc3C[C@@H](CO)N2C1=O` (mixture of isomers): the inhibition at 10 µM with Plasmodium falciparum [6] was found to be 1.21%. For the same compound, the Activity in the series on HepG2 [8] is recorded as -45%; in the series with HepG2 [10], -55%; in the series on HepG2 [12], -3%. The inhibition at 50 µM with Plasmodium falciparum [9] amounted to 1.9%.

As for `C[C@]12CC3(CCCC3)C(=O)N1[C@H](CO)Cc1ccccc12`, the inhibition at 10 µM in the series on Plasmodium falciparum [6] was 0.971%. In addition, the Activity with Plasmodium falciparum [1] was 1.06%; with Plasmodium falciparum [2] it was 1.407%; with HepG2 [8] it was -63%; in the series with Plasmodium falciparum [3], 1.024%; in the series with HepG2 [10], 10%; in the series with HepG2 [12] it was -15%. The inhibition at 50 µM in the series on Plasmodium falciparum [9] was determined as 1.53%.

For `C=CCC1(CC=C)C[C@]2(C)c3ccccc3C[C@@H](CO)N2C1=O`, the inhibition at 10 µM with Plasmodium falciparum [6] was 2.27%. The inhibition at 50 µM in the series with Plasmodium falciparum [9] was found to be 3.1%.

In the case of `CN(C)C[C@@H]1Cc2ccccc2[C@@]2(C)CCC(=O)N12`, the inhibition at 10 µM with Plasmodium falciparum [6] came to 1.92%. For the same compound, the inhibition at 50 µM with Plasmodium falciparum [9] stood at 12.7%.

As for `C[C@]12CCC(=O)N1[C@H](CO)Cc1ccccc12`, the inhibition at 10 µM in the series with Plasmodium falciparum [6] came to 5.67%. For the same compound, the inhibition at 50 µM with Plasmodium falciparum [9] was 19.1%.

Turning to `CCOC(=O)[C@]1(c2ccc([N+](=O)[O-])cc2[N+](=O)[O-])C[C@]2(C)c3ccccc3C[C@@H](CN(C)C)N2C1=O`, the inhibition at 20 µM in the series with Plasmodium falciparum [4] was found to be 21.1%. For the same compound, the inhibition at 1 µM in the series with Plasmodium falciparum [5] amounted to 0%. The inhibition at 10 µM with Plasmodium falciparum [6] came to 71.6%. Moreover, the inhibition at 40 µM with Plasmodium falciparum [7] turned out to be 61.5%. Also, the Activity was determined as 1.283% in the series on Plasmodium falciparum [1], 1.217% in the series on Plasmodium falciparum [2] and 1.737% in the series on Plasmodium falciparum [3]. In addition, the inhibition at 50 µM in the series with Plasmodium falciparum [9] stood at 89.6%. Besides, the inhibition at 0.5 µM with Plasmodium falciparum [11] stood at 0%. For the same compound, the inhibition at 30 µM in the series on Plasmodium falciparum [13] was determined as 48.9%.

Consider `CN(C)C[C@@H]1Cc2ccccc2[C@@]2(C)C[C@@]3(C(=O)Nc4ccccc43)C(=O)N12`, for which the inhibition at 20 µM in the series with Plasmodium falciparum [4] was found to be 37%. Also, the inhibition at 1 µM in the series with Plasmodium falciparum [5] came to 2.64%. The inhibition at 10 µM in the series with Plasmodium falciparum [6] was 14.8%. In the series with Plasmodium falciparum [7], the inhibition at 40 µM is 59.1%. In addition, the Activity with HepG2 [8] was -7%; with HepG2 [10], -4%; in the series on HepG2 [12], -4%. The inhibition at 50 µM in the series with Plasmodium falciparum [9] turned out to be 64.6%. Besides, the inhibition at 0.5 µM in the series on Plasmodium falciparum [11] was 0.721%. In addition, the inhibition at 30 µM in the series with Plasmodium falciparum [13] amounted to 52.4%.

For `CN(C)C[C@@H]1Cc2ccccc2[C@@]2(C)C[C@@]3(C(=O)Nc4cc(N)ccc43)C(=O)N12`, the inhibition at 10 µM in the series with Plasmodium falciparum [6] came out at 5.38%. Further, the Activity in the series with HepG2 [8] is -52%; with HepG2 [10], -39%; in the series with HepG2 [12] it was -6%. Further, the inhibition at 50 µM in the series with Plasmodium falciparum [9] was determined as 10.1%.

Regarding `CCOC(=O)[C@@]1(c2ccc([N+](=O)[O-])cc2[N+](=O)[O-])C[C@]2(C)c3ccccc3C[C@@H](CN(C)C)N2C1=O`, in the series on Plasmodium falciparum [4], the inhibition at 20 µM came to 48.1%. The inhibition at 1 µM with Plasmodium falciparum [5] worked out at 5.77%. The inhibition at 10 µM in the series on Plasmodium falciparum [6] was determined as 0.385%. The inhibition at 40 µM in the series with Plasmodium falciparum [7] was 66.5%. Also, the Activity in the series on Plasmodium falciparum [1] was found to be 0.9355%; in the series on Plasmodium falciparum [2], 1.571%; in the series on Plasmodium falciparum [3], 1.421%. Besides, the inhibition at 50 µM in the series on Plasmodium falciparum [9] was 91.5%. Also, the inhibition at 0.5 µM in the series with Plasmodium falciparum [11] worked out at 0%. Moreover, the inhibition at 30 µM in the series with Plasmodium falciparum [13] was 52.9%.

`C[C@]12C[C@]3(C(=O)NCC3c3ccccc3)C(=O)N1[C@H](CO)Cc1ccccc12` (stereo not given in full): the figures for the Activity with HepG2 [8], with HepG2 [10] and in the series on HepG2 [12] were -29%, -41% and -19%, respectively.

In the case of `CCOC(=O)C1C[C@]2(C)c3ccccc3C[C@@H](CN(C)C)N2C1=O` (stereo not given in full), the inhibition at 10 µM in the series with Plasmodium falciparum [6] worked out at 7.19%. Further, the inhibition at 50 µM in the series on Plasmodium falciparum [9] stood at 74.5%.

Consider `CN(C)C[C@@H]1Cc2ccccc2[C@@]2(C)C[C@]3(C(=O)Nc4ccccc43)C(=O)N12`, for which the inhibition at 20 µM with Plasmodium falciparum [4] was 44.2%. Further, the inhibition at 1 µM with Plasmodium falciparum [5] amounted to 1.92%. In the series with Plasmodium falciparum [6], the inhibition at 10 µM is 30.1%. In the series on Plasmodium falciparum [7], the inhibition at 40 µM stood at 51.9%. Also, the Activity was -54% in the series with HepG2 [8], -29% in the series with HepG2 [10] and 1% in the series on HepG2 [12]. Besides, the inhibition at 50 µM with Plasmodium falciparum [9] is 59.7%. The inhibition at 0.5 µM in the series with Plasmodium falciparum [11] was 0%. Besides, the inhibition at 30 µM in the series on Plasmodium falciparum [13] was determined as 48.1%.
